Experimental data taken from patent US9073940B2, “Tricyclic pyrazol amine derivatives” (MERCK SERONO SA, priority 2009, dated 2015).

System: 4 PI3K isoforms (Human recombinant GST-PI3K)
Test: PI3K scintillation proximity assay, best IC50 obtained with the four isoforms (alpha, beta, delta, gamma)
Assay type: biochemical
Conditions: for IC50: best IC50 obtained with the four isoforms of PI3K, read-out: Best potency measured on the 4 PI3K isoforms; for Best potency measured on the 4 PI3K isoforms, % inh @20 μM: inhibition at 20 μM

SMILES | IC50 [µM] | Best potency measured on the 4 PI3K isoforms, % inh @20 μM [% inh @20 μM]
Cc1nc(CN2CCCC(n3nc(C(=O)N4CCOCC4)c4c3-c3ccccc3S(=O)(=O)C4)C2)no1 (stereo not shown) [Example 295, 1-{1-[(5-Methyl-1,2,4-oxadiazol-3-yl)methyl]piperidin-3-yl}-3-(morpholin-4-ylcarbonyl)-1,4-dihydrothiochromeno[4,3-c]pyrazole 5,5-dioxide] | 0.134 | 
O=C(c1nn(C2CCCN(CCCn3cccc3)C2)c2c1CS(=O)(=O)c1ccccc1-2)N1CCOCC1 (stereo not shown) [Example 296, 3-(Morpholin-4-ylcarbonyl)-1-{1-[3-(1H-pyrrol-1-yl)propyl]piperidin-3-yl}-1,4-dihydrothiochromeno[4,3-c]pyrazole 5,5-dioxide] | 0.09 | 
O=C(c1nn(C2CCCN(CCn3ccnc3)C2)c2c1CS(=O)(=O)c1ccccc1-2)N1CCOCC1 (stereo not shown) [Example 297, 1-{1-[2-(1H-Imidazol-1-yl)ethyl]piperidin-3-yl}-3-(morpholin-4-ylcarbonyl)-1,4-dihydrothiochromeno[4,3-c]pyrazole 5,5-dioxide] | 0.052 | 
O=C(c1nn(C2CCN(C3CCOCC3)C2)c2c1CS(=O)(=O)c1c(F)cccc1-2)N1CCOCC1 (stereo not shown) [Example 298, 6-Fluoro-3-(morpholin-4-ylcarbonyl)-1-[1-(tetrahydro-2H-pyran-4-yl)pyrrolidin-3-yl]-1,4-dihydrothiochromeno[4,3-c]pyrazole 5,5-dioxide] | 0.029 | 
CC(=O)OCCN1CCC(n2nc(C(=O)N3CCOCC3)c3c2-c2ccccc2S(=O)(=O)C3)C1 (stereo not shown) [Example 299, 2{3-[3-(Morpholin-4-ylcarbonyl)-5,5-dioxidothiochromeno[4,3-c]pyrazol-1(4H)-yl]pyrrolidin-1-yl)ethyl acetate] | 0.871 | 
O=C(c1nn(C2CCN(C3CCOCC3)C2)c2c1CS(=O)(=O)c1ccccc1-2)N1CCOCC1 (stereo not shown) [Example 300, 3-(Morpholin-4-ylcarbonyl)-1-[1-(tetrahydro-2H-pyran-4-yl)pyrrolidin-3-yl]-1,4-dihydrothiochromeno[4,3-c]pyrazole 5,5-dioxide] | 0.077 | 
O=C(c1nn(C2CCCN(CCC3CCOCC3)C2)c2c1CS(=O)(=O)c1c(Cl)cccc1-2)N1CCOCC1 (stereo not shown) [Example 301, 6-Chloro-3-(morpholin-4-ylcarbonyl)-1-{1-[2-(tetrahydro-2H-pyran-4-yl)ethyl]piperidin-3-yl}-1,4-dihydrothiochromeno[4,3-c]pyrazole 5.5-dioxide] | 0.038 | 
O=C(c1nn(C2CCN(CCC3CCOCC3)C2)c2c1CS(=O)(=O)c1c(F)cccc1-2)N1CCOCC1 (stereo not shown) [Example 302, 6-Fluoro-3-(morpholin-4-ylcarbonyl)-1-{1-[2-(tetrahydro-2H-pyran-4-yl)ethyl]pyrrolidin-3-yl}-1,4-dihydrothiochromeno[4,3-c]pyrazole 5,5-dioxide] | 0.021 | 
O=C(c1nn(C2CCN(CC3CCOC3)C2)c2c1CS(=O)(=O)c1ccccc1-2)N1CCOCC1 (stereo not shown) [Example 303, 3-(Morpholin-4-ylcarbonyl)-1-[1-(tetrahydrofuran-3-ylmethyl)pyrrolidin-3-yl]-1,4-dihydrothiochromeno[4,3-c]pyrazole 5,5-dioxide] | 0.353 | 
O=C(c1nn(C2CCN(CC3CCOC3)C2)c2c1CS(=O)(=O)c1c(F)cccc1-2)N1CCOCC1 (stereo not shown) [Example 304, 6-Fluoro-3-(morpholin-4-ylcarbonyl)-1-[1-(tetrahydrofuran-3-ylmethyl)pyrrolidin-3-yl]-1,4-dihydrothiochromeno[4,3-c]pyrazole 5,5-dioxide] | 0.057 | 
O=C(c1nn(C2CCCN(CC3CCOCC3)C2)c2c1CS(=O)(=O)c1ccccc1-2)N1CCOCC1 (stereo not shown) [Example 305, 3-(morpholin-4-ylcarbonyl)-1-[1-(tetrahydro-2H-pyran-4-ylmethyl)piperidin-3-yl]-1,4-dihydrothiochromeno[4,3-c]pyrazole 5,5-dioxide] | 0.011 | 
O=C(c1nn(C2CCN(CCN3CC[C@@H](F)C3)C2)c2c1CS(=O)(=O)c1ccccc1-2)N1CCOCC1 (stereo partly drawn) [Example 308, 1-(1-{2-[(3R)-3-Fluoropyrrolidin-1-yl]ethyl}pyrrolidin-3-yl)-3-(morpholin-4-ylcarbonyl)-1,4-dihydrothiochromeno[4,3-c]pyrazole 5,5-dioxide] | 0.12 | 
O=C(c1nn(C2CCCN(CCN3CCOCC3)C2)c2c1CS(=O)(=O)c1c(Cl)cccc1-2)N1CCOCC1 (stereo not shown) [Example 309, 6-Chloro-3-(morpholin-4-ylcarbonyl)-1-[1-(2-morpholin-4-ylethyl)piperidin-3-yl]-1,4-dihydrothiochromeno[4,3-c]pyrazole 5,5-dioxide] | 0.12 | 
O=C(c1nn(C2CCN(CCN3CC[C@H](F)C3)C2)c2c1CS(=O)(=O)c1ccccc1-2)N1CCOCC1 (stereo partly drawn) [Example 310, 1-(1-{2-[(3S)-3-Fluoropyrrolidin-1-yl]ethyl}pyrrolidin-3-yl)-3-(morpholin-4-ylcarbonyl)-1,4-dihydrothiochromeno[4,3-c]pyrazole 5,5-dioxide] | 0.192 | 
O=C(c1nn(C2CCN(CCN3CC(F)(F)C3)C2)c2c1CS(=O)(=O)c1ccccc1-2)N1CCOCC1 (stereo not shown) [Example 311, 1-{1-[2-(3,3-Difluoroazetidin-1-yl)ethyl]pyrrolidin-3-yl}-3-(morpholin-4-ylcarbonyl)-1,4-dihydrothiochromeno[4,3-c]pyrazole 5,5-dioxide] | 0.156 | 
CC(C)c1ccccc1-n1nc(C(=O)N2CCOCC2)c2c1-c1ccccc1S(=O)(=O)C2 [Example 312, 1-(2-Isopropylphenyl)-3-(morpholin-4-ylcarbonyl)-1,4-dihydrothiochromeno[4,3-c]pyrazole 5,5-dioxide] |  | 47
COc1ccccc1-n1nc(C(=O)N2CCOCC2)c2c1-c1ccccc1S(=O)(=O)C2 [Example 313, 1-(2-Methoxyphenyl)-3-(morpholin-4-ylcarbonyl)-1,4-dihydrothiochromeno[4,3-c]pyrazole 5,5-dioxide] | 14.8 | 
CS(=O)(=O)c1ccccc1-n1nc(C(=O)N2CCOCC2)c2c1-c1ccccc1S(=O)(=O)C2 [Example 314] |  | 45
O=C(c1nn(C2CCOCC2)c2c1C(F)S(=O)(=O)c1ccccc1-2)N1CCOCC1 (stereo not shown) [Example 316, 4-Fluoro-3-(morpholin-4-ylcarbonyl)-1-(tetrahydro-2H-pyran-4-yl)-1,4-dihydrothiochromeno[4,3-c]pyrazole 5,5-dioxide] | 9.8 | 
COc1ccc(C(=O)Cn2nc(C(=O)N3CCOCC3)c3c2-c2ccccc2S(=O)(=O)C3)cc1 [Example 317] | 14.5 | 

SMILES | IC50 [µM] | Best potency measured on the 4 PI3K isoforms, % inh @20 μM [% inh @20 μM]
O=C(Nc1cccc2c1S(=O)(=O)Cc1c(C(=O)N3CCOCC3)nn(-c3ccccc3)c1-2)c1ccccc1 [Example 318] |  | 10
O=C(c1nn(-c2ccccc2)c2c1CS(=O)(=O)c1c(CN3CCCCC3)cccc1-2)N1CCOCC1 [Example 319] |  | 33
CN(C)Cc1cccc2c1S(=O)(=O)Cc1c(C(=O)N3CCOCC3)nn(-c3ccccc3)c1-2 [Example 320] |  | 32
CC1CC(C)CC(n2nc(C(=O)N3CCOCC3)c3c2-c2ccccc2S(=O)(=O)C3)C1 (stereo not shown) [Example 321] | 7.96 | 
CC(=O)Nc1cccc2c1S(=O)(=O)Cc1c(C(=O)N3CCOCC3)nn(-c3ccccc3)c1-2 [Example 322] | 9.88 | 
O=C(c1nn(-c2ccccc2)c2c1CS(=O)(=O)c1c(-c3ccccc3)cccc1-2)N1CCOCC1 [Example 323] | 17.9 | 
O=C(c1nn(-c2cccc(-c3ncon3)c2)c2c1CS(=O)(=O)c1ccccc1-2)N1CCOCC1 [Example 324] | 6.69 | 
O=C(c1nn(-c2cccc(-c3nn[nH]n3)c2)c2c1CS(=O)(=O)c1ccccc1-2)N1CCOCC1 [Example 325] |  | 19
CCCCNc1ccc2c(c1)S(=O)(=O)Cc1c(C(=O)N3CCOCC3)nn(-c3ccccc3)c1-2 [Example 326] | 9.79 | 
COCCNc1ccc2c(c1)S(=O)(=O)Cc1c(C(=O)N3CCOCC3)nn(-c3ccccc3)c1-2 [Example 327] | 6.61 | 
O=C(c1nn(-c2ccc(-c3ccccc3)cc2)c2c1CS(=O)(=O)c1ccccc1-2)N1CCOCC1 [Example 328] | 10.3 | 
O=C(c1nn(-c2ccccc2)c2c1CS(=O)(=O)c1cc(CN3CCOCC3)ccc1-2)N1CCOCC1 [Example 329] |  | 23
O=C(c1nn(-c2ccccc2)c2c1C[S+]([O-])c1ccccc1-2)N1CCOCC1 (stereo not shown) [Example 330, 3-(Morpholin-4-ylcarbonyl)-1-phenyl-1,4-dihydrothiochromeno[4,3-c]pyrazole 5-oxide] |  | 18
CC(C)CC1COCCN1C(=O)c1nn(-c2ccccc2)c2c1CS(=O)(=O)c1ccccc1-2 (stereo not shown) [Example 332] |  | 15
O=C(c1nn(-c2ccccc2)c2c1CS(=O)(=O)c1ccccc1-2)N1CCOC(CO)C1 (stereo not shown) [Example 333, {4-[(5,5-Dioxido-1-phenyl-1,4-dihydrothiochromeno[4,3-c]pyrazol-3-yl)carbonyl]morpholin-2-yl}methanol] | 6.53 | 
O=C(c1nn(-c2ccccc2)c2c1CS(=O)(=O)c1ccccc1-2)N1CCCOCC1 [Example 334, 3-(1,4-Oxazepan-4-ylcarbonyl)-1-phenyl-1,4-dihydrothiochromeno[4,3-c]pyrazole 5,5-dioxide] | 9.07 | 
O=C(c1nn(-c2ccccc2)c2c1CS(=O)(=O)c1ccccc1-2)N1CCOc2ccccc21 [Example 335] |  | 13
CC1CN(C(=O)c2nn(-c3ccccc3)c3c2CS(=O)(=O)c2ccccc2-3)CC(C)O1 (stereo not shown) [Example 337] |  | 11
CC1COCCN1C(=O)c1nn(-c2ccccc2)c2c1CS(=O)(=O)c1ccccc1-2 (stereo not shown) [Example 338, 3-[(3-Methylmorpholin-4-yl)carbonyl]-1-phenyl-1,4-dihydrothiochromeno[4,3-c]pyrazole 5,5-dioxide] | 13.9 | 
O=C(c1nn(-c2cccc(OCCn3cccn3)c2)c2c1CS(=O)(=O)c1ccccc1-2)N1CCOCC1 [Example 340, 3-(Morpholin-4-ylcarbonyl)-1-{3-[2-(1H-pyrazol-1-yl)ethoxy]phenyl}-1,4-dihydrothiochromeno[4,3-c]pyrazole 5,5-dioxide] | 0.445 | 
